Reference: PubChem BioAssay AID248 (DTP/NCI, 2004)
Toxic doses and inconclusive results are not listed.

Test system: L1210 leukemia ip in BDF1 mice, survival T/C
Test: NCI In Vivo Anticancer Drug Screen. Data for tumor model L1210 Leukemia (intraperitoneal) in B6D2F1 (BDF1) mice
Settings: endpoint: mean survival time, higher = longer survival
Procedure, shortened: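 In this screen, tumor-bearing mice given compound are compared to those given vehicle, and their survival values are reported as a treated-to-control quotient.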

[1] = dose: 100.0 mg/kg/injection, schedule: Q01DX001 (ip), vehicle: saline
[2] = dose: 200.0 mg/kg/injection, schedule: Q01DX001 (ip), vehicle: saline
[3] = dose: 100.0 mg/kg/injection, schedule: Q04DX003 (ip), vehicle: Klucel (hydroxypropylcellulose) (HPC)
[4] = dose: 200.0 mg/kg/injection, schedule: Q04DX003 (ip), vehicle: Klucel (hydroxypropylcellulose) (HPC)
[5] = dose: 400.0 mg/kg/injection, schedule: Q04DX003 (ip), vehicle: Klucel (hydroxypropylcellulose) (HPC)

In the case of CCc1ccc(NC(=O)Nc2ccccc2OC)cc1, the T/C (dose: 100.0 mg/kg/injection, schedule: Q01DX009 (ip), vehicle: gum acacia) is reported as 97 % of control, the T/C (dose: 100.0 mg/kg/injection, schedule: Q04DX003 (ip), vehicle: gum acacia) is reported as 98 % of control and the T/C (dose: 200.0 mg/kg/injection, schedule: Q01DX009 (ip), vehicle: gum acacia) is reported as 94 % of control. For the same compound, the T/C (dose: 200.0 mg/kg/injection, schedule: Q04DX003 (ip), vehicle: gum acacia) was 92 % of control, the T/C (dose: 400.0 mg/kg/injection, schedule: Q01DX009 (ip), vehicle: gum acacia) was 91 % of control and the T/C (dose: 400.0 mg/kg/injection, schedule: Q04DX003 (ip), vehicle: gum acacia) was 104 % of control.
In the case of O=C1OCC2Cc3cc4c(cc3C(c3ccc5c(c3)OCO5)=C12)OCO4 (configuration not stated), the T/C [1] is reported as 98 % of control, the T/C [2] is reported as 109 % of control and the T/C (dose: 400.0 mg/kg/injection, schedule: Q01DX001 (ip), vehicle: saline) is reported as 95 % of control.
COc1ccc(N)c(CC2c3ccccc3CCN2C)c1 (configuration not stated) was tested, and the T/C (dose: 10.0 mg/kg/injection, schedule: Q01DX001 (ip), vehicle: carboxymethylcellulose (CMC)) was 103 % of control, the T/C (dose: 20.0 mg/kg/injection, schedule: Q01DX001 (ip), vehicle: carboxymethylcellulose (CMC)) was 105 % of control and the T/C (dose: 40.0 mg/kg/injection, schedule: Q01DX001 (ip), vehicle: carboxymethylcellulose (CMC)) was 105 % of control. The T/C (dose: 80.0 mg/kg/injection, schedule: Q01DX001 (ip), vehicle: carboxymethylcellulose (CMC)) was 100 % of control and the T/C (dose: 100.0 mg/kg/injection, schedule: Q01DX001 (ip), vehicle: carboxymethylcellulose (CMC)) was 96 % of control.
For OCC1(CO)CCCC2(COC3(CCCCC3)OC2)C1, the T/C [3] was 98 % of control, the T/C [4] was 94 % of control and the T/C [5] was 94 % of control.
For OCC1OC(n2cnc3c(NO)nc(NO)nc32)C(O)C1O (configuration not stated), the T/C (dose: 30.0 mg/kg/injection, schedule: Q01DX009 (ip), vehicle: saline) was 151 % of control and the T/C (dose: 150.0 mg/kg/injection, schedule: Q01DX001 (ip), vehicle: saline) was 115 % of control.
CS(N)(=O)=O was tested, and the T/C (dose: 12.5 mg/kg/injection, schedule: Q04DX002 (ip), vehicle: saline) was 111 % of control, the T/C (dose: 25.0 mg/kg/injection, schedule: Q04DX002 (ip), vehicle: saline) was 96 % of control and the T/C (dose: 50.0 mg/kg/injection, schedule: Q04DX002 (ip), vehicle: saline) was 96 % of control.
Cc1cc(C)c(N(CC(=O)O)S(=O)(=O)c2ccccc2)c(C)c1Br was tested, and the T/C (dose: 75.0 mg/kg/injection, schedule: Q04DX003 (ip), vehicle: Klucel (hydroxypropylcellulose) (HPC)) was 92 % of control, the T/C (dose: 150.0 mg/kg/injection, schedule: Q04DX003 (ip), vehicle: Klucel (hydroxypropylcellulose) (HPC)) was 90 % of control and the T/C (dose: 300.0 mg/kg/injection, schedule: Q04DX003 (ip), vehicle: Klucel (hydroxypropylcellulose) (HPC)) was 90 % of control.
With CC(=O)OC1COC(n2cnc3c(N)ncnc32)C(OC(C)=O)C1OC(C)=O (configuration not stated) the T/C (dose: 50.0 mg/kg/injection, schedule: Q01DX001 (ip), vehicle: saline) was 100 % of control, the T/C [1] was 97 % of control and the T/C [2] was 100 % of control.
With Cc1ccccc1SCC#CCSc1ccccc1C the T/C (dose: 100.0 mg/kg/injection, schedule: Q01DX001 (ip), vehicle: Klucel (hydroxypropylcellulose) (HPC)) was 93 % of control, the T/C (dose: 200.0 mg/kg/injection, schedule: Q01DX001 (ip), vehicle: Klucel (hydroxypropylcellulose) (HPC)) was 95 % of control and the T/C (dose: 400.0 mg/kg/injection, schedule: Q01DX001 (ip), vehicle: Klucel (hydroxypropylcellulose) (HPC)) was 106 % of control.
In the case of COc1ccc(/C=C(/C)C(=O)c2ccccc2)cc1, the T/C [3] is reported as 98 % of control, the T/C [4] is reported as 88 % of control and the T/C [5] is reported as 103 % of control.
For CCOC(=O)c1cnc(SC)nc1Nc1c(Br)cc(Br)cc1Br, the T/C (dose: 12.5 mg/kg/injection, schedule: Q01DX009 (ip), vehicle: Klucel (hydroxypropylcellulose) (HPC)) was 102 % of control, the T/C (dose: 12.5 mg/kg/injection, schedule: Q04DX003 (ip), vehicle: Klucel (hydroxypropylcellulose) (HPC)) was 97 % of control and the T/C (dose: 25.0 mg/kg/injection, schedule: Q01DX009 (ip), vehicle: Klucel (hydroxypropylcellulose) (HPC)) was 102 % of control. For the same compound, the T/C (dose: 25.0 mg/kg/injection, schedule: Q04DX003 (ip), vehicle: Klucel (hydroxypropylcellulose) (HPC)) was 94 % of control, the T/C (dose: 50.0 mg/kg/injection, schedule: Q01DX009 (ip), vehicle: Klucel (hydroxypropylcellulose) (HPC)) was 105 % of control and the T/C (dose: 50.0 mg/kg/injection, schedule: Q04DX003 (ip), vehicle: Klucel (hydroxypropylcellulose) (HPC)) was 103 % of control.
For CC(=O)OC1C(CF)OC(n2cnc3c(Cl)ncnc32)C1OC(C)=O (configuration not stated), the T/C (dose: 100.0 mg/kg/injection, schedule: Q01DX005 (ip), vehicle: saline) was 98 % of control and the T/C (dose: 200.0 mg/kg/injection, schedule: Q01DX005 (ip), vehicle: saline) was 97 % of control.
